We go through 51 compounds from patent US11759461B2, “Small molecule inhibitors of cancer stem cells and mesenchymal cancer types” (The Scripps Research Institute, priority 2017, dated 2023).

This assay deals with FOXC2-expressing HMLER cells. Briefly: Cell Titer Glo viability of FOXC2-HMLER cells (high throughput screen and 10-point response). The note with it: Homo sapiens; scored relative to parent compound 2; 72 hours; read-out: Activity Score, inhibition of FOXC2-expressing HMLER cells by Formula II compounds. It counts as cell-based. The method, boiled down: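 Viability after 72 h compound exposure was measured as Cell Titer Glo luminescence. FOXC2-HMLER and parental HMLER cells, 1,000 per well in MEGM medium, were dosed 1 h after plating; screening concentration was 2 μM.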
For orientation: In ATP-based viability assays light output follows the ATP content of the culture.
In the case of `COc1ccc2cc(CNc3ccc(C)cc3)c(=O)n(CC(=O)NCCc3ccccc3)c2c1` [Compound 2HH], the IC50 was over 20 µM.
Regarding `COc1ccc(NCc2cc3cc(OC)c(OC)cc3n(CC(=O)Nc3cccc(C)c3)c2=O)cc1` [Compound 2HI], the IC50 is over 20 µM.
For `COc1ccc2cc(CNc3ccc(C)cc3)c(=O)n(CC(=O)Nc3cccc(Cl)c3)c2c1` [Compound 2HJ], the IC50 is over 20 µM.
Regarding `CCc1ccc(NCc2cc3ccc(OC)cc3n(CC(=O)Nc3ccc(F)cc3)c2=O)cc1` [Compound 2HK], the IC50 was over 20 µM.
To `COc1ccc2c(c1)cc(CNc1ccc(OC)c(OC)c1)c(=O)n2CC(=O)Nc1ccc(C)cc1` [Compound 2HL] belongs over 20 µM.
To `COc1ccc(NC(=O)c2ccccc2NC(=O)CN2C(=O)c3ccccc3C2=O)cc1` [Compound 2HM] belongs over 20 µM.
To `COc1ccc2cc(CNc3ccccc3)c(=O)n(CC(=O)Nc3cc(C)cc(C)c3)c2c1` [Compound 2HN] belongs over 20 µM; to `COc1ccc(NCc2cc3ccc(C)cc3n(CC(=O)Nc3ccc(C)c(C)c3)c2=O)cc1OC` [Compound 2HO], over 20 µM.
Turning to `COc1ccc(NCc2cc3cc4c(cc3n(CC(=O)Nc3c(C)cccc3C)c2=O)OCCO4)cc1` [Compound 2HP], the IC50 is over 20 µM.
The same measure for `CCc1ccc(NCc2cc3ccc(OC)cc3n(CC(=O)Nc3cc(C)cc(C)c3)c2=O)cc1` [Compound 2HQ]: over 20 µM.
The same measure for `CCc1ccc(NCc2cc3cc(OC)c(OC)cc3n(CC(=O)Nc3ccc(C)cc3)c2=O)cc1` [Compound 2HR]: over 20 µM; for `COc1ccccc1NC(=O)Cn1c(=O)c(CNc2ccc(C)cc2)cc2cc(OC)c(OC)cc21` [Compound 2HS]: over 20 µM; for `COc1ccc2cc(CNc3ccccc3)c(=O)n(CC(=O)Nc3ccccc3C)c2c1` [Compound 2HT]: over 20 µM.
The same measure for `COc1ccc(NC(=O)Cn2c(=O)c(CNc3ccc(OC)c(OC)c3)cc3ccc(C)cc32)cc1` [Compound 2HU]: over 20 µM; for `COc1ccc2cc(CNc3ccc(C)cc3)c(=O)n(CC(=O)Nc3ccc(C(C)=O)cc3)c2c1` [Compound 2HV]: over 20 µM.
In the case of `COc1ccc2cc(CNc3ccc(OC)c(OC)c3)c(=O)n(CC(=O)Nc3ccc(C)cc3)c2c1` [Compound 2HW], the IC50 was over 20 µM.
To `COc1cccc(NC(=O)Cn2c(=O)c(CNc3ccc(C)cc3)cc3ccc(OC)cc32)c1` [Compound 2HX] belongs over 20 µM; to `COc1cccc(CNC(=O)Cn2c(=O)c(CNc3ccc(C)cc3)cc3ccc(OC)cc32)c1` [Compound 2HY], over 20 µM; to `COc1ccc2cc(CNc3ccc(C)cc3)c(=O)n(CC(=O)NCc3ccc(Cl)cc3)c2c1` [Compound 2HZ], over 20 µM.
To `COc1ccc2cc(CNc3ccc(C)cc3)c(=O)n(CC(=O)Nc3cccc(Cl)c3C)c2c1` [Compound 2H] belongs 1 to 20 µM; to `COc1ccc2cc(CNc3ccccc3)c(=O)n(CC(=O)NCc3ccc(F)cc3)c2c1` [Compound 2IA], over 20 µM; to `COc1ccc(NCc2cc3cc(OC)c(OC)cc3n(CC(=O)Nc3ccccc3)c2=O)cc1` [Compound 2IB], over 20 µM.
Turning to `COc1ccc(NCc2cc3ccc(OC)cc3n(CC(=O)Nc3cccc(OC)c3)c2=O)cc1` [Compound 2IC], the IC50 was over 20 µM.
Consider `COc1ccc(NCc2cc3cc4c(cc3n(CC(=O)Nc3cccc(C)c3)c2=O)OCCO4)cc1` [Compound 2ID], for which the IC50 was over 20 µM.
To `COc1cc2cc(CNc3ccccc3)c(=O)n(CC(=O)Nc3cccc(Cl)c3)c2cc1OC` [Compound 2IE] belongs over 20 µM.
To `COc1cc(NC(=O)Cn2c(=O)c(CNc3ccccc3)cc3ccc(C)cc32)cc(OC)c1` [Compound 2IF] belongs over 20 µM; to `COc1ccc(NCc2cc3cc4c(cc3n(CC(=O)Nc3cc(C)cc(C)c3)c2=O)OCCO4)cc1` [Compound 2IG], over 20 µM; to `CCc1ccc(NCc2cc3cc(OC)c(OC)cc3n(CC(=O)Nc3cc(C)cc(C)c3)c2=O)cc1` [Compound 2IH], over 20 µM.
The same measure for `CCOc1ccc(NC(=O)Cn2c(=O)c(CNc3ccccc3)cc3ccc(OC)cc32)cc1` [Compound 2II]: over 20 µM.
As to `COc1ccc(NCc2cc3cc(C)ccc3n(CC(=O)Nc3cc(C)cc(C)c3)c2=O)cc1` [Compound 2IJ], the IC50 was over 20 µM.
The same measure for `CCc1ccc(NC(=O)Cn2c(=O)c(CNc3ccc(OC)cc3)cc3cc4c(cc32)OCCO4)cc1` [Compound 2IK]: over 20 µM.
To `CCc1ccc(NCc2cc3ccc(OC)cc3n(CC(=O)Nc3ccc(OC)cc3)c2=O)cc1` [Compound 2IL] belongs over 20 µM; to `COc1ccc2cc(CNc3ccc(C)cc3)c(=O)n(CC(=O)Nc3c(C)cccc3C)c2c1` [Compound 2IM], over 20 µM.
Consider `CCc1ccc(NCc2cc3cc(OC)c(OC)cc3n(CC(=O)Nc3cc(C)ccc3C)c2=O)cc1` [Compound 2I], for which the IC50 is 1 to 20 µM.
To `CCc1ccc(NCc2cc3ccc(OC)cc3n(CC(=O)Nc3ccc(C)cc3C)c2=O)cc1` [Compound 2J] belongs 1 to 20 µM; to `COc1ccc2cc(CNc3ccc(C)cc3)c(=O)n(CC(=O)Nc3c(C)cc(C)cc3C)c2c1` [Compound 2K], 1 to 20 µM.
To `COc1ccc(NCc2cc3ccc(C)cc3n(CC(=O)Nc3cc(C)ccc3C)c2=O)cc1OC` [Compound 2L] belongs 1 to 20 µM; to `COc1ccc2cc(CNc3ccc(C)cc3)c(=O)n(CC(=O)Nc3ccc(C)cc3Cl)c2c1` [Compound 2M], 1 to 20 µM; to `CCc1ccc(NCc2cc3cc4c(cc3n(CC(=O)Nc3ccccc3CC)c2=O)OCCO4)cc1` [Compound 2N], 1 to 20 µM.
To `COc1ccc2cc(CNc3ccc(C)cc3)c(=O)n(CC(=O)Nc3ccccc3F)c2c1` [Compound 2O] belongs 1 to 20 µM; to `CCc1ccc(NCc2cc3cc4c(cc3n(CC(=O)Nc3ccccc3C)c2=O)OCCO4)cc1` [Compound 2P], 1 to 20 µM.
As for `COc1ccc2cc(CNc3ccc(C)cc3)c(=O)n(CC(=O)Nc3ccc(Cl)cc3)c2c1` [Compound 2Q], the IC50 is 1 to 20 µM.
The same measure for `COc1ccc2cc(CNc3ccccc3)c(=O)n(CC(=O)Nc3cc(C)ccc3C)c2c1` [Compound 2R]: 1 to 20 µM.
For the compound `CCOc1ccc(NC(=O)Cn2c(=O)c(CNc3ccc(C)cc3)cc3cc4c(cc32)OCCO4)cc1` [Compound 2S], the IC50 lay within 1 to 20 µM.
To `CCc1ccc(NCc2cc3ccc(OC)cc3n(CC(=O)Nc3ccccc3F)c2=O)cc1` [Compound 2T] belongs 1 to 20 µM; to `COc1ccc2cc(CNc3ccc(C)cc3)c(=O)n(CC(=O)Nc3cc(C)ccc3C)c2c1` [Compound 2U], 1 to 20 µM; to `COc1cc2cc(CNc3ccccc3)c(=O)n(CC(=O)Nc3ccc(C(C)C)cc3)c2cc1OC` [Compound 2V], 1 to 20 µM.
In the case of `COc1ccc(NCc2cc3cc4c(cc3n(CC(=O)Nc3cc(C)ccc3C)c2=O)OCCO4)cc1` [Compound 2W], the IC50 was 1 to 20 µM.
The same measure for `COc1cc2cc(CNc3ccccc3)c(=O)n(CC(=O)Nc3cc(C)ccc3C)c2cc1OC` [Compound 2X]: 1 to 20 µM.
To `COc1cc2cc(CNc3ccccc3)c(=O)n(CC(=O)Nc3cccc(Cl)c3C)c2cc1OC` [Compound 2Y] belongs 1 to 20 µM; to `CCOc1ccc(NC(=O)Cn2c(=O)c(CNc3ccc(CC)cc3)cc3ccc(OC)cc32)cc1` [Compound 2Z], 1 to 20 µM.
